According to US20180099931A1 (AbbVie S.à.r.l., priority 2016, published 2018):
Where two headings read alike, the source gives them in different places.

Biological target: T1, F508delCFTR (Homo sapiens, UniProt P13569, DEL508-508)
T1 construct: expressed in transfected cells; host or cells: CFBE41o- human lung-derived epithelial cells (CFBE4lo-F508delCFTR-HRP), doxycycline-inducible
Experiment: Cell Surface Expression-Horse Radish Peroxidase (CSE-HRP) Assay;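 for Maximum % activity (with co-corrector): co-corrector and positive control are both the same reference corrector at 2 µM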;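 for Maximum % activity (without co-corrector): percent of the 2 µM on-plate positive control corrector response above DMSO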
Format: cell-based
Settings: for Emax: read-out: Maximum % activity (without co-corrector)

[1] = test compound without co-corrector, maximum at any tested concentration, normalized to on-plate positive control
[2] = test compound without co-corrector, read-out: EC50 (without co-corrector)
[3] = with co-corrector (2 μM of 3-[(2R,4R)-4-({[1-(2,2-difluoro-1,3-benzodioxol-5-yl)cyclopropyl]carbonyl}amino)-7-methoxy-3,4-dihydro-2H-chromen-2-yl]benzoic acid), read-out: EC50 (with co-corrector)
[4] = with co-corrector (2 μM), maximum at any tested concentration, normalized to on-plate positive control
[5] = CSE-HRP, test compound without co-corrector, read-out: EC50 (without co-corrector)
[6] = CSE-HRP, with co-corrector (2 μM of 3-[(2R,4R)-4-({[1-(2,2-difluoro-1,3-benzodioxol-5-yl)cyclopropyl]carbonyl}amino)-7-methoxy-3,4-dihydro-2H-chromen-2-yl]benzoic acid), read-out: EC50 (with co-corrector)
[7] = CSE-HRP, with co-corrector (2 μM), maximum at any tested concentration, normalized to on-plate positive control
[8] = CSE-HRP, without co-corrector, maximum at any tested concentration, normalized to on-plate positive control
[9] = without co-corrector, maximum at any tested concentration, normalized to on-plate positive control
[10] = with co-corrector (2 μM of 3-[(2R,4R)-4-({[1-(2,2-difluoro-1,3-benzodioxol-5-yl)cyclopropyl]carbonyl}amino)-7-methoxy-3,4-dihydro-2H-chromen-2-yl]benzoic acid), maximum at any tested concentration, normalized to on-plate positive control

T1 sequence (P13569 with tags, fused parts or gaps DEL508-508): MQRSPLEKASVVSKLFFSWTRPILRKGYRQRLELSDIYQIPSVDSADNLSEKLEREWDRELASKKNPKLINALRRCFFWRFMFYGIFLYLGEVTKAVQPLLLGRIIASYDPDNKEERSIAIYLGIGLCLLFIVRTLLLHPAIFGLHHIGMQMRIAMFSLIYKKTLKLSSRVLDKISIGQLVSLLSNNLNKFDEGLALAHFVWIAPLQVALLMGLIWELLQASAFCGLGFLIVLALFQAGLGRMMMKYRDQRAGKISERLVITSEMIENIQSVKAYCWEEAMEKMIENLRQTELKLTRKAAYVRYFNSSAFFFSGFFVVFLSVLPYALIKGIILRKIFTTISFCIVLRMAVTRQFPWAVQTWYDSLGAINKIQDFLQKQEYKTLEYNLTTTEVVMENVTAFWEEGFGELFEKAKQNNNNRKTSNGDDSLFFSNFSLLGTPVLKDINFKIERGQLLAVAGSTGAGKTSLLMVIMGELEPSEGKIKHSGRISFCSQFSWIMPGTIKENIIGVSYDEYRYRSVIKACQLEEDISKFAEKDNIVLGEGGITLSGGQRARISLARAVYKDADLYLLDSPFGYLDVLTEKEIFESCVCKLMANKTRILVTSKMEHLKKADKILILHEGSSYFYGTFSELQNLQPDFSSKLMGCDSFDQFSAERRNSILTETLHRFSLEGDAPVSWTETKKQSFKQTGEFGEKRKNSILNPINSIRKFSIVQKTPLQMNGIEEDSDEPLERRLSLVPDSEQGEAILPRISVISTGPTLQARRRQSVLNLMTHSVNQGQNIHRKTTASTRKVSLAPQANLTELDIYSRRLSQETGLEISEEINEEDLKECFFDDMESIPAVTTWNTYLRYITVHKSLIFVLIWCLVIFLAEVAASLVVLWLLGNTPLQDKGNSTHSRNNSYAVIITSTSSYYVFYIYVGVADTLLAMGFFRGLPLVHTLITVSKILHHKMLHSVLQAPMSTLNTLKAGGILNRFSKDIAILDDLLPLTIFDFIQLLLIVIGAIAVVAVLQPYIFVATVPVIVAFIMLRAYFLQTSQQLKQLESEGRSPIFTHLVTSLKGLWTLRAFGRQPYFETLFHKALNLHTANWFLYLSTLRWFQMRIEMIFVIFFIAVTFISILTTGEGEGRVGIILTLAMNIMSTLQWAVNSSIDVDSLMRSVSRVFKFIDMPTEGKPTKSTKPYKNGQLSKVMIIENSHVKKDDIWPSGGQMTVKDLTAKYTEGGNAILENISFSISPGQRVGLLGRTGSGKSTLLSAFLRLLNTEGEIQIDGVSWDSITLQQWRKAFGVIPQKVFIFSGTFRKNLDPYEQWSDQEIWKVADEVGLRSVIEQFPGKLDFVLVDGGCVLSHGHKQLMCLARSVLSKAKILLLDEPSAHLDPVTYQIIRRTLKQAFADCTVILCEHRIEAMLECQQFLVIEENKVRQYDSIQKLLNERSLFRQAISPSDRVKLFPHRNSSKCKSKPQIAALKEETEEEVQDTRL

Row | SMILES | Emax [1] [%] | EC50 [2] [nM] | EC50 [3] [nM] | Maximum % activity (with co-corrector) [4] | Emax [9] [%] | further results
1 | COc1ncc(C2CC3CCC2C3)cc1CN[C@H]1[C@H](C(C)(C)OC)[C@@H](C(=O)O)N(C(=O)C2CCCCC2)[C@H]1c1ccccc1 (some centres unmarked) [II-251] |  |  |  |  |  | EC50 [5]: < 1000 nM; EC50 [6]: < 1000 nM; Maximum % activity (with co-corrector) [7]: +++ (≥350); Emax [8]: 100 to 200%
2 | COc1ccc(C(F)(F)F)cc1CN[C@H]1[C@H](C(C)(C)C)[C@@H](C(=O)O)N(C(=O)C2Cc3ccccc3O2)[C@H]1c1ccccc1 (single isomer, unassigned) [II-266] |  |  |  |  |  | EC50 [5]: 1000 to 10000 nM; EC50 [6]: < 1000 nM; Maximum % activity (with co-corrector) (CSE-HRP, with co-corrector (2 μM), maximum at any tested concentration, normalized to on-plate positive control, 2 µM): +++ (≥350); Maximum % activity (without co-corrector) [8]: ++ (≥100 and <200)
3 | COc1ccc(C(F)(F)F)cc1CN[C@@H]1[C@@H](C(C)(C)C)[C@H](C(=O)O)N(C(=O)C(OC)c2ccccc2)[C@@H]1c1cccnc1N(C)C (relative stereo) [III-88] | < 100 | > 10000 | 1000 to 10000 |  |  | Maximum % activity (with co-corrector) [10]: ++ (≥150 and <350)
4 | CC(C)(C)[C@H]1[C@H](NCc2cc(Cl)ccc2O)[C@H](c2ccccc2)N(C(=O)C2CCCCC2)[C@@H]1C(=O)O [Example I-51] |  | > 10000 | 1000 to 10000 | ++ (≥150 and <350) | < 100 | 
5 | COc1ncc(C(F)(F)F)cc1CN[C@H]1[C@H](C(C)(C)C)[C@@H](C(=O)O)N(C(=O)C23CC(C2)C3)[C@H]1c1ccccc1C(C)C [Example I-272] |  |  |  |  |  | EC50 [5]: 1000 to 10000 nM; EC50 [6]: < 1000 nM; Maximum % activity (with co-corrector) [7]: +++ (≥350); Emax [8]: 100 to 200%
6 | COc1ccc(C(C)C)cc1CN[C@@H]1[C@@H](C(C)(C)C)[C@H](C(=O)O)N(C(=O)OC(C)C)[C@@H]1c1ccccc1 (racemic) [II-44] |  |  |  |  |  | EC50 [5]: 1000 to 10000 nM; EC50 [6]: 1000 to 10000 nM; Maximum % activity (with co-corrector) [7]: +++ (≥350); Emax [8]: > 200%
7 | COc1cc(C(F)(F)F)ccc1CN[C@H]1[C@H](C(C)(C)C)[C@@H](C(=O)O)N(C(=O)[C@H](OC)c2ccccc2)[C@H]1c1cccnc1OC [II-84] |  |  |  |  |  | EC50 [5]: 1000 to 10000 nM; EC50 [6]: 1000 to 10000 nM; Maximum % activity (with co-corrector) [7]: +++ (≥350); Emax [8]: 100 to 200%
8 | COc1cc(C(F)(F)F)ccc1CN[C@H]1[C@H](C(C)(C)C)[C@@H](C(=O)O)N(C(=O)[C@H](OC)c2ccccc2)[C@H]1c1cccnc1N(C)C [II-87] |  |  |  |  |  | EC50 [5]: 1000 to 10000 nM; EC50 [6]: 1000 to 10000 nM; Maximum % activity (with co-corrector) [7]: +++ (≥350); Emax [8]: 100 to 200%
9 | Cc1cc(C(F)(F)F)cc(N[C@@H]2[C@@H](C(C)(C)C)[C@H](C(=O)O)N(C(=O)OC(C)C)[C@@H]2c2ccccc2)n1 (racemic) [II-13] |  |  |  |  |  | EC50 [5]: 1000 to 10000 nM; EC50 [6]: 1000 to 10000 nM; Maximum % activity (with co-corrector) [7]: +++ (≥350); Emax [8]: < 100%
10 | CC(C)(C)c1ccc(O)c(CN[C@H]2[C@H](C(C)(C)C)[C@@H](C(=O)O)N(C(=O)C3CCCCC3)[C@H]2c2ccccc2)c1 [Example I-80] |  | > 10000 | > 10000 | + (<150) | < 100 | 
11 | COc1ccc(C(C)(C)C)cc1CN[C@@H]1[C@@H](C(C)(C)C)[C@H](C(=O)NS(C)(=O)=O)N(C(=O)C2CCCCC2)[C@@H]1c1ccccc1 [Example I-203] |  | 1000 to 10000 | 1000 to 10000 | ++ (≥150 and <350) | < 100 | 
12 | COc1ccc(C(C)(C)C)cc1CN[C@H]1[C@H](C(C)(C)C)[C@@](C)(C(=O)O)N(C(=O)[C@H](OC)c2ccccc2)[C@H]1c1ccccc1 [III-215] | < 100 | 1000 to 10000 | 1000 to 10000 | ++ (≥150 and <350) |  | 
13 | COc1ccc(C(C)(C)C)cc1CN[C@H]1[C@H](C(C)(C)C)[C@@H](C(=O)O)N(C(=O)Cc2ccc(O)cc2)[C@H]1c1ccccc1 [II-195] |  |  |  |  |  | EC50 [5]: 1000 to 10000 nM; EC50 [6]: 1000 to 10000 nM; Maximum % activity (with co-corrector) [7]: +++ (≥350); Emax [8]: > 200%

Second part, led by results:

Row | Emax [1] [%] | EC50 [2] [nM] | EC50 [3] [nM] | Maximum % activity (with co-corrector) [4] | Emax [9] [%] | SMILES | further results
14 | > 200 | 1000 to 10000 | < 1000 | +++ (≥350) |  | COc1ccc(C(C)(C)C)cc1CN[C@H]1[C@H](C(C)(C)C)[C@@H](C(=O)O)N(C(=O)C2CCOC(C(C)C)C2)[C@H]1c1ccccc1 (some centres unmarked) [III-179] | 
15 |  | < 1000 | < 1000 | +++ (≥350) | > 200 | COc1ccc(C(C)(C)C)cc1CN[C@H]1[C@H](C(C)(C)C)[C@@H](C(=O)O)N(C(=O)C2CCCCO2)[C@H]1c1ccccc1C(C)C (relative stereo) [Example 62, (2S,3S,4S,5S)-3-tert-butyl-4-{[(5-tert-butyl-2-methoxyphenyl)methyl]amino}-1-[(2S*)-oxane-2-carbonyl]-5-[2-(propan-2-yl)phenyl]pyrrolidine-2-carboxylic acid] | 
16 | < 100 | 1000 to 10000 | 1000 to 10000 |  |  | Cc1cc(C(F)(F)F)cc(N[C@H]2[C@H](C(C)(C)C)[C@@H](C(=O)O)N(C(=O)C3CCCCO3)[C@H]2c2cccnc2N(C)C)n1 (relative stereo) [II-504] | Maximum % activity (with co-corrector) [10]: ++ (≥150 and <350)
17 |  | 1000 to 10000 | < 1000 | +++ (≥350) | > 200 | COc1ccc(C(F)(F)F)cc1CN[C@H]1[C@H](C(C)(C)OC)[C@@H](C(=O)O)N(C(=O)C2CCCCC2)[C@H]1c1ccccc1 [Example I-63] | 
18 | 100 to 200 | 1000 to 10000 | 1000 to 10000 |  |  | COc1ccc(C(C)(C)C)cc1CN[C@H]1[C@H](C(C)(C)C)[C@@H](C(=O)O)N(C(=O)C2CC(C)CC(C)C2)[C@H]1c1cccnc1N(C)C (some centres unmarked) [II-469] | Maximum % activity (with co-corrector) [10]: +++ (≥350)
19 |  | 1000 to 10000 | 1000 to 10000 | +++ (≥350) | > 200 | COc1ccc(C(C)(C)C)cc1CN[C@H]1[C@H](C(C)(C)C)[C@@H](C(=O)O)N(C(=O)[C@H]2CCCCO2)[C@H]1c1cccnc1N(C)C [Example 19, (2S,3S,4S,5S)-3-tert-butyl-4-{[(5-tert-butyl-2-methoxyphenyl)methyl]amino}-5-[2-(dimethylamino)pyridin-3-yl]-1-[(2R)-oxane-2-carbonyl]pyrrolidine-2-carboxylic acid] | 
20 |  | < 1000 | < 1000 | +++ (≥350) | > 200 | COc1cc(C(F)(F)F)ccc1CN[C@H]1[C@H](C(C)(C)C)[C@@H](C(=O)O)N(C(=O)C2CCCCC2)[C@H]1c1ccccc1C [Example 88, (2S,3S,4S,5S)-3-tert-butyl-1-(cyclohexanecarbonyl)-4-({[2-methoxy-4-(trifluoromethyl)phenyl]methyl}amino)-5-(2-methylphenyl)pyrrolidine-2-carboxylic acid] | 
21 | > 200 | 1000 to 10000 | 1000 to 10000 | +++ (≥350) |  | COc1ccc(OC(F)(F)F)cc1CN[C@H]1[C@H](C(C)(C)C)[C@@H](C(=O)O)N(C(=O)OC(C)C)[C@H]1c1cccnc1OC(C)C [III-231] | 
22 |  | < 1000 | < 1000 | +++ (≥350) | 100 to 200 | COc1ccc(C(C)(C)C)cc1CN[C@H]1[C@H](C(C)(C)C)[C@@H](C(=O)O)N(C(=O)OCc2ccccc2Cl)[C@H]1c1ccccc1 [Example I-154] | 
23 | 100 to 200 | 1000 to 10000 | 1000 to 10000 | +++ (≥350) |  | COc1ncc(C(F)(F)F)cc1CN[C@H]1[C@H](C23CC(C2)C3)[C@@H](C(=O)O)N(C(=O)OC(C)C)[C@H]1c1ccccc1 [III-221] | 
24 |  | 1000 to 10000 | 1000 to 10000 | +++ (≥350) | < 100 | COc1cnc(C2CCC2)cc1CN[C@H]1[C@H](C(C)(C)C)[C@@H](C(=O)O)N(C(=O)C2CCCCC2)[C@H]1c1ccccc1 [Example I-168] | 
25 | > 200 | < 1000 | < 1000 |  |  | CCCCCOC(=O)N1[C@H](C(=O)O)[C@@H](C(C)(C)C)[C@H](NCc2cc(C(C)(C)C)ccc2OC)[C@@H]1c1ccccc1 [II-385] | Maximum % activity (with co-corrector) [10]: +++ (≥350)
26 | > 200 | 1000 to 10000 | < 1000 | +++ (≥350) |  | COc1ccc(C(C)(C)C)cc1CN[C@H]1[C@H](C(C)(C)C)[C@@H](C(=O)O)N(C(=O)C2CCCCC2C)[C@H]1c1cccnc1N(C)C (some centres unmarked) [III-205] | 
27 | < 100 | 1000 to 10000 | 1000 to 10000 |  |  | CO[C@@H](C(=O)N1[C@H](c2ccccc2)[C@H](Nc2cc(C(F)(F)F)cc(C)n2)[C@@H](C(C)(C)C)[C@@H]1C(=O)O)c1ccccc1 [III-75] | Maximum % activity (with co-corrector) [10]: ++ (≥150 and <350)
28 |  | < 1000 | < 1000 | +++ (≥350) | > 200 | COc1ccc(-c2ccccc2F)cc1CN[C@H]1[C@H](C(C)(C)C)[C@@H](C(=O)O)N(C(=O)C2CCCCC2)[C@H]1c1ccccc1 [Example I-126] | 
29 | 100 to 200 | < 1000 | < 1000 |  |  | COc1ncc(-c2ccc(F)cc2C)cc1CN[C@H]1[C@H](C(C)(C)C)[C@@H](C(=O)O)N(C(=O)C2CCCCC2)[C@H]1c1ccccc1 [II-343] | Maximum % activity (with co-corrector) [10]: +++ (≥350)
